Assay results: the OPERA property sets (Mansouri et al. 2018)

Details: for log10 biotransformation half-life (days) / log10 BCF: fish

SMILES | boiling point | melting point | also measured
Clc1ccc(Oc2cccc(Cl)c2)cc1 |  |  | log10 vapour pressure (mmHg): -3.19
CCCCCCCCOC(=O)c1ccccc1C(=O)OCCCCCCCC |  |  | log10 Koc (L/kg): 4.38; log10 vapour pressure (mmHg): -7; ready biodegradability: readily biodegradable
CC(C)C(C)C(C)C(C)C (stereo unspecified) | 156 °C |  | 
c1ccc2c(c1)ccc1ccc3ccccc3c12 |  | 68 °C | 
CCNC1=NC(=O)C(c2ccccc2)O1 (stereo unspecified) |  | 148 °C | 
CCOC(=O)CCCC(=O)OCC | 236 °C | -24.1 °C | log10 vapour pressure (mmHg): -0.793
CCCCCCCCCCCCCCCCCCCCCCCCCCCCC | 441 °C | 63.7 °C | log10 biodegradation half-life (days): 2; log10 vapour pressure (mmHg): -9.37; ready biodegradability: readily biodegradable
CN(c1ccccc1)c1ccccc1 | 294 °C | -7.5 °C | log10 vapour pressure (mmHg): -2.51
CC(C)OC(=O)COc1cc(Cl)c(Cl)cc1Cl |  | 45 °C | 
CCC(C(N)=O)c1ccccc1 (stereo unspecified) |  | 86 °C | 
Cc1c([N+](=O)[O-])cc2c(c1[N+](=O)[O-])C(C)(C)CC2(C)C |  | 132 °C | 
CN(C)c1cccc(N)c1 | 270 °C |  | 
Cc1cc(C)c(C)c(C)c1C | 232 °C | 54.5 °C | log10 vapour pressure (mmHg): -1.46
CCC(O)CCl (stereo unspecified) | 141 °C |  | 
ClCC(Cl)=C(Cl)Cl | 167 °C |  | log10 vapour pressure (mmHg): 0.428
Nc1cc(Cl)c(O)c(Cl)c1 |  | 168 °C | 
O=C(Cl)CCc1ccccc1 |  | -2 °C | 
CC(C)(C)NC[C@H](O)COc1ccccc1C1CCCC1 |  | 70 °C | 
Cc1ccc(Cl)c(N)c1 | 229 °C | 29.5 °C | 
CC=CC(C)C(=O)O (stereo unspecified) | 199 °C |  | 
CCCCF | 32.5 °C | -134 °C | log10 vapour pressure (mmHg): 2.76
COC(=O)c1sccc1N |  | 65 °C | 
CC(C)C1NC(=O)NC1=O (stereo unspecified) |  |  | ready biodegradability: not readily biodegradable

SMILES | boiling point | melting point | also measured
[N-]=[N+]=NC(=O)c1ccccc1 |  | 32 °C | 
C/C=C(/C)CCC | 95.6 °C | -118 °C | 
N#CC(Cl)Cl | 112 °C |  | 
BrC(Br)c1ccccc1OCC1CO1 (stereo unspecified) |  |  | ready biodegradability: not readily biodegradable
CC[Si](O)(CC)CC | 154 °C |  | 
O=[N+]([O-])c1cc[n+]([O-])c2ccccc12 |  | 154 °C | 
O=C(O)c1c(Cl)c(Cl)c(Cl)c(Cl)c1Cl |  | 209 °C | 
CCCCNC(C)=O | 229 °C |  | 
CCOc1ccccc1N | 232 °C |  | 
CC(=O)Oc1ccc(C2(c3ccc(OC(C)=O)cc3)C(=O)Nc3ccccc32)cc1 |  | 242 °C | 
CCOC(=O)Nc1ccccc1 | 238 °C | 53 °C | log10 Koc (L/kg): 1.82
C=CCNCCC | 112 °C |  | 
NC(=O)OCC(O)COc1ccc(Cl)cc1 (stereo unspecified) |  | 90 °C | 
Clc1ccccc1Oc1ccccc1 |  |  | log10 vapour pressure (mmHg): -2.4
CCn1ccnc1 | 208 °C |  | 
CCCCOc1ccc(C)cc1 | 230 °C |  | 
N#Cc1ccc([N+](=O)[O-])cc1 |  | 148 °C | 
N#Cc1cc([N+](=O)[O-])ccc1N |  |  | ready biodegradability: not readily biodegradable
NC1=NCCS1 |  | 85.3 °C | 
O=S(=O)(Cl)c1ccc(Cl)cc1 |  | 51 °C | 
CCS(=O)(=O)C(C)(C)S(=O)(=O)CC | 300 °C | 126 °C | 
COc1ccccc1OP(=O)(Oc1ccccc1OC)Oc1ccccc1OC |  | 91 °C | 
Clc1ccc(C(c2ccc(Cl)cc2)C(Cl)Cl)cc1 | 350 °C | 110 °C | log10 Henry constant (atm·m³/mol): -5.18; log10 Koa: 10.1; log10 Koc (L/kg): 4.21; log10 vapour pressure (mmHg): -5.87; log10 biotransformation half-life (days): 2.44

SMILES | boiling point | melting point | also measured
Clc1ccc(Oc2ccccc2)cc1Cl |  |  | log10 vapour pressure (mmHg): -3.19
ClCc1ccccc1CCl | 240 °C | 55 °C | 
CC(C)=NO | 136 °C | 61 °C | 
c1ccc(C2CCCC(C3CCCCC3)C2)cc1 (stereo unspecified) |  |  | log10 biotransformation half-life (days): 0.45
FCCC(F)(F)F | 29.4 °C |  | 
CNCCS(=O)(=O)O |  | 242 °C | ready biodegradability: readily biodegradable
COC(=O)[C@]12OC[C@]34[C@H]([C@@H](O)[C@@H]1O)[C@@]1(C)CC(=O)C(O)=C(C)[C@@H]1C[C@H]3OC(=O)[C@H](OC(=O)/C=C(\C)C(C)C)[C@@H]24 |  | 226 °C | 
[C-]#[N+]CCCC | 120 °C |  | 
CSc1nnc(C(C)(C)C)c(=O)n1/N=C/C(C)C |  | 159 °C | log10 vapour pressure (mmHg): -6.46
O=C1c2ccccc2-c2ccc(O)cc21 |  | 205 °C | 
N#Cc1ccccn1 | 224 °C | 29 °C | 
C=C[C@@H]1C2=CCOC(=O)C2=CO[C@H]1O[C@@H]1O[C@H](CO)[C@@H](O)[C@H](O)[C@H]1O |  | 191 °C | 
c1ccc(-c2ccc(-c3ccc(-c4ccccc4)cc3)cc2)cc1 |  | 320 °C | 
CCC(C)OC=O (stereo unspecified) | 97 °C |  | 
FCCCCCCl | 143 °C |  | 
Clc1cccc(Cl)c1-c1c(Cl)cccc1Cl |  |  | log10 Henry constant (atm·m³/mol): -3.7; log10 Koc (L/kg): 4.9; log10 BCF: 3.85
CCCC(=O)O[C@H]1[C@H](C)O[C@@H](O[C@H]2[C@H](N(C)C)[C@@H](O)[C@H](O[C@H]3[C@@H](CC=O)C[C@@H](C)[C@@H](O)C=CC=CC[C@@H](C)OC(=O)C[C@@H](O)[C@@H]3OC)O[C@@H]2C)C[C@@]1(C)OC(=O)CC |  | 116 °C | 
CCP(c1ccccc1)c1ccccc1 | 293 °C |  | 
BrCC=Cc1ccccc1 |  | 34 °C | 
CCCCC(C)Cl (stereo unspecified) | 122 °C |  | log10 vapour pressure (mmHg): 1.13
NS(=O)(=O)c1ccc([N+](=O)[O-])cc1 |  | 179 °C | 
CC(C)(C)c1cccc2ccccc12 | 279 °C | -11.3 °C | 
CCOP(=S)(Oc1cnc(C(C)(C)C)nc1)OC(C)C (stereo unspecified) |  |  | log10 vapour pressure (mmHg): -4.43

SMILES | boiling point | melting point | also measured
Cc1ccc(N)cc1N | 292 °C | 99 °C | log10 vapour pressure (mmHg): -3.77; ready biodegradability: not readily biodegradable; log10 BCF: 1.7
CCCCCCCC(=O)OC | 193 °C | -40 °C | log10 Henry constant (atm·m³/mol): -3.11; log10 vapour pressure (mmHg): -0.267; ready biodegradability: not readily biodegradable
OCc1ccco1 | 171 °C | -14.6 °C | log10 vapour pressure (mmHg): -0.215; ready biodegradability: readily biodegradable
O=C(OC1CCCCC1)C(=O)OC1CCCCC1 |  | 43.5 °C | 
CSc1c(N)nc(N)nc1Cl |  |  | log10 Koc (L/kg): 2.08
Brc1ccc(Oc2ccccc2Br)cc1 |  |  | log10 Koa: 8.47
O=Cc1cccs1 | 197 °C |  | 
Oc1ccc(Cl)c(O)c1 |  | 107 °C | ready biodegradability: not readily biodegradable
CCCCCCCCCCCCCCCC(=O)c1ccccc1 |  | 59 °C | 
Oc1cc(O)cc(Cl)c1 |  | 118 °C | 
O=c1oc2ccccc2c(O)c1C1CC(c2ccc(-c3ccc(Br)cc3)cc2)Cc2ccccc21 (stereo unspecified) |  | 230 °C | 
CCCCCCCOC(=O)CCC | 226 °C | -57.5 °C | 
OCC(O)COc1ccccc1Cl (stereo unspecified) |  | 71.5 °C | 
CCN(C(=O)SCc1ccccc1)C(C)C(C)C (stereo unspecified) |  |  | log10 vapour pressure (mmHg): -5.12
C=CC(C)C(C)O (stereo unspecified) | 126 °C |  | 
CC(CCO)CC(F)(F)F (stereo unspecified) | 159 °C |  | 
C=C[Si](OC(C)C)(OC(C)C)OC(C)C | 180 °C |  | 
CC#CCCC | 84.5 °C | -89.6 °C | 
N=C(N)NC(=N)NCCc1ccccc1 |  | 176 °C | 
CC(C)CN=C=O | 106 °C |  | 
Oc1ccc(Cl)cc1Cc1ccccc1 |  | 48.5 °C | log10 vapour pressure (mmHg): -5.85; ready biodegradability: readily biodegradable
C#CC | -23.2 °C | -103 °C | log10 vapour pressure (mmHg): 3.63
CCCCCCCCCCCC[N+](C)(C)[O-] |  | 132 °C | ready biodegradability: readily biodegradable
